Reference: article PMC8213057, “Targeting ALK2: An Open Science Approach to Developing Therapeutics for the Treatment of Diffuse Intrinsic Pontine Glioma” (Journal of Medicinal Chemistry, 2020)

Assays:
[1] = target: MAPKAPK3 (Homo sapiens, UniProt Q16644); conditions: 1 μM; Run 1, Run 2
[2] = target: CDK5/p35 (Homo sapiens, UniProt Q00535); assay: biochemical; conditions: read-out: % enzyme activity, 1 μM; Run 1, Run 2
[3] = target: T1, DYRK2 (Homo sapiens, UniProt Q92630); assay: biochemical; conditions: read-out: % enzyme activity, 1 μM; Run 1, Run 2
T1 sequence (Q92630 1-601): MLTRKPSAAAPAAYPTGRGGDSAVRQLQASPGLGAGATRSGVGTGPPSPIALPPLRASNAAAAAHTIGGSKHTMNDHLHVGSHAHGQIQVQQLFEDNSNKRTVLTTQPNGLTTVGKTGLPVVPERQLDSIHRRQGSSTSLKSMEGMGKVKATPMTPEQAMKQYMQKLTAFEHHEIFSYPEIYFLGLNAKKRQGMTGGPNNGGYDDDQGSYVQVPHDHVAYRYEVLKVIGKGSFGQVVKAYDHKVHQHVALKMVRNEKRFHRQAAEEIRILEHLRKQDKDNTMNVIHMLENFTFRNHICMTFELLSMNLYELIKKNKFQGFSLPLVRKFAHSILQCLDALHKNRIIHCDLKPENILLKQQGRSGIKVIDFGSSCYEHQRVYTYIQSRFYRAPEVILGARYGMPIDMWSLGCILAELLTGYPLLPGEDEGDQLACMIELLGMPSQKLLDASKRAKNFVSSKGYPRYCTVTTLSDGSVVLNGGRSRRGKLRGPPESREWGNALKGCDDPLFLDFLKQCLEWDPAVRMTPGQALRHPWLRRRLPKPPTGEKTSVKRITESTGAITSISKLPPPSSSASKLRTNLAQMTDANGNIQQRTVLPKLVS

[4] = target: GSK3b (Homo sapiens, UniProt P49841); conditions: 1 μM; Run 1, Run 2
Chain of GSK3b (P49841 whole entry): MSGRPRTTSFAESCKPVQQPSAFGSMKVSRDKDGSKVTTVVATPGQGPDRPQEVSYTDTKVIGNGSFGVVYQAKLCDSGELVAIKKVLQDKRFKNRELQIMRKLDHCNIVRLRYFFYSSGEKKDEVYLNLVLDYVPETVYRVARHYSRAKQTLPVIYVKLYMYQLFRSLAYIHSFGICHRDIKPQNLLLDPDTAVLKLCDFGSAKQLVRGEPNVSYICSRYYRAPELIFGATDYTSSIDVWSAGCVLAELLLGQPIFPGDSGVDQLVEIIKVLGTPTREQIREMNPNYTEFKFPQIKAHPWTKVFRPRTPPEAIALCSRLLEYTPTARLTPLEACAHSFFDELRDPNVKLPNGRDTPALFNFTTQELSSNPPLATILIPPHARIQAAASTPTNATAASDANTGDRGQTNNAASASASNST

[5] = target: RIPK3 (Homo sapiens, UniProt Q9Y572); assay: biochemical; conditions: read-out: % enzyme activity, 1 μM; Run 1, Run 2
Chain of RIPK3 (Q9Y572 whole entry): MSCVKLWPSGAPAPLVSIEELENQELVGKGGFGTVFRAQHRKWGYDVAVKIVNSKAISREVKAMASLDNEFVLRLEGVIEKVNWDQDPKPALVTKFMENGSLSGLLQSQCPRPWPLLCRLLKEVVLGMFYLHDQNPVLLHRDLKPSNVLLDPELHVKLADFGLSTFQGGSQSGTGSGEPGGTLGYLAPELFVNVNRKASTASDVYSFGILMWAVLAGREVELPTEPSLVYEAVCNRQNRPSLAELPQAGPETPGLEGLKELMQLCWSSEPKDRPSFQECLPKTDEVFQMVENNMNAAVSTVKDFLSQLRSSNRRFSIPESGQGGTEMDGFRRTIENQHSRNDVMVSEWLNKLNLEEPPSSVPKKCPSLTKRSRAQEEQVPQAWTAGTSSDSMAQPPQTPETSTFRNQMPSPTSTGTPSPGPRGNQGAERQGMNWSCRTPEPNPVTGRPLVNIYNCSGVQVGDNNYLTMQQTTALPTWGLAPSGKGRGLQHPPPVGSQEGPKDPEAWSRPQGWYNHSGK

[6] = target: T2, LATS2 (Homo sapiens, UniProt Q9NRM7); conditions: 1 μM; Run 1, Run 2
T2 sequence (Q9NRM7 1-1088): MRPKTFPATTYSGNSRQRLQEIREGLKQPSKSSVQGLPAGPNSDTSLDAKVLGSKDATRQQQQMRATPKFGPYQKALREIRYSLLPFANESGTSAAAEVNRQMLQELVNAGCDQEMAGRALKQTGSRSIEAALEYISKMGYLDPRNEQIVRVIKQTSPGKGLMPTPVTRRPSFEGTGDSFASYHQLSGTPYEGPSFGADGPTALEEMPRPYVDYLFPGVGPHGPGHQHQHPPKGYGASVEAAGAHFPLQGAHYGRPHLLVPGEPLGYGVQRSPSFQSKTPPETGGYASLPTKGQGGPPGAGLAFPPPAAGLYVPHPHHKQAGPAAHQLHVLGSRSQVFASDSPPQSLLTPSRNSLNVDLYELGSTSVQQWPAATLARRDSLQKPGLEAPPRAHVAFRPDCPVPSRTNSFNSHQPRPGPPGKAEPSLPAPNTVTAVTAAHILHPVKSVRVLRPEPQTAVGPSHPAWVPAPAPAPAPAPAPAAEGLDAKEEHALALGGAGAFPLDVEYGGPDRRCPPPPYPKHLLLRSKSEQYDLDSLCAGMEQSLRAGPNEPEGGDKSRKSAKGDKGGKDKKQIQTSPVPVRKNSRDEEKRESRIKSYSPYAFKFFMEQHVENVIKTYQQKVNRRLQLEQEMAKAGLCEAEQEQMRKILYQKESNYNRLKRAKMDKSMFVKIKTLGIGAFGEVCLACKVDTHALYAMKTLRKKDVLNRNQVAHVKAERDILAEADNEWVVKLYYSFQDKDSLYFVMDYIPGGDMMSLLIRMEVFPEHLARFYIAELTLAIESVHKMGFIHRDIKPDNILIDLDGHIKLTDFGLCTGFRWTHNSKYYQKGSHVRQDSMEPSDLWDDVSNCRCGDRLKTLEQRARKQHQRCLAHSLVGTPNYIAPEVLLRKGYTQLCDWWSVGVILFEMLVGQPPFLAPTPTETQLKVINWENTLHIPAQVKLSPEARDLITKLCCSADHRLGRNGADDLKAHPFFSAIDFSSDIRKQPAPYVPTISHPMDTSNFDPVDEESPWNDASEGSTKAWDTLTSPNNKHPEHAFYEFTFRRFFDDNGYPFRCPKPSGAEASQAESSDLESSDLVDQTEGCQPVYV

[7] = target: CAMK1a (Homo sapiens, UniProt Q14012); conditions: 1 μM; Run 1, Run 2
Chain of CAMK1a (Q14012 whole entry): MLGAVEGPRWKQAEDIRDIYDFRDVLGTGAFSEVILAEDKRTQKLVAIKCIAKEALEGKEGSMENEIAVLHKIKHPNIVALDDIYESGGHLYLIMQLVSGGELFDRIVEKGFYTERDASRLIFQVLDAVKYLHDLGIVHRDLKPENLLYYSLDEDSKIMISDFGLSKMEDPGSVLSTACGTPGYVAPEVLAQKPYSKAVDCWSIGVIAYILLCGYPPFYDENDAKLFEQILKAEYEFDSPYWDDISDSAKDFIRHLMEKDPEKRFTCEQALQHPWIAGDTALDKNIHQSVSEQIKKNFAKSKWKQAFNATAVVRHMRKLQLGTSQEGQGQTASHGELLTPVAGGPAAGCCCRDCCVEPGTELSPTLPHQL

[8] = target: T3, NEK9 (Homo sapiens, UniProt Q8TD19); assay: biochemical; conditions: read-out: % enzyme activity, 1 μM; Run 1, Run 2
T3 sequence (Q8TD19 1-979): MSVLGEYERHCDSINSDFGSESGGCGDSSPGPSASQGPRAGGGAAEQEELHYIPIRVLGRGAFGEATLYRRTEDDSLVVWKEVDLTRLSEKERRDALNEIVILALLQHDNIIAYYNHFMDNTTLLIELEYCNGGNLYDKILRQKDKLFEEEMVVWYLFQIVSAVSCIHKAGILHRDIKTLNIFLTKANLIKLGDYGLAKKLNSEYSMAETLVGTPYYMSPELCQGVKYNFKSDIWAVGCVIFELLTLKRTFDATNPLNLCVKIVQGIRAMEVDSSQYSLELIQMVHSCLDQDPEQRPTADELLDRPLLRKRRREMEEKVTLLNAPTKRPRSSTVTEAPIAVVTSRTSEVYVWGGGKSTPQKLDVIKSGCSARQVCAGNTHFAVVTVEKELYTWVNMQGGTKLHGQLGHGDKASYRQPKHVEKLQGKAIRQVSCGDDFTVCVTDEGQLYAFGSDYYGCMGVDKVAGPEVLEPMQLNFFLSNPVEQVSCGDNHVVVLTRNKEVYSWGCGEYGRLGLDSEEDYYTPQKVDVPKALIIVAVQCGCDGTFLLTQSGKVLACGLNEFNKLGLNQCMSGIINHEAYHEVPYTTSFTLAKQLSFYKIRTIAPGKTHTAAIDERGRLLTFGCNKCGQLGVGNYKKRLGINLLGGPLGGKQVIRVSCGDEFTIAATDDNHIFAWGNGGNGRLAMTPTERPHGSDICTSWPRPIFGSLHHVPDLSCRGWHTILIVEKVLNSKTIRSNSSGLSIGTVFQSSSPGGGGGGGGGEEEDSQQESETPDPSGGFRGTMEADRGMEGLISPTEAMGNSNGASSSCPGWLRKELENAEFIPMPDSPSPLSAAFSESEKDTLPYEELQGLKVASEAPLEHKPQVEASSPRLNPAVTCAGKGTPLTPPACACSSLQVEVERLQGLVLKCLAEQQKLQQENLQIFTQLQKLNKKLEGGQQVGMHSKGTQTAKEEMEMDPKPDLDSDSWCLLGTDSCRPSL

Chain of MAPKAPK3 (Q16644 whole entry): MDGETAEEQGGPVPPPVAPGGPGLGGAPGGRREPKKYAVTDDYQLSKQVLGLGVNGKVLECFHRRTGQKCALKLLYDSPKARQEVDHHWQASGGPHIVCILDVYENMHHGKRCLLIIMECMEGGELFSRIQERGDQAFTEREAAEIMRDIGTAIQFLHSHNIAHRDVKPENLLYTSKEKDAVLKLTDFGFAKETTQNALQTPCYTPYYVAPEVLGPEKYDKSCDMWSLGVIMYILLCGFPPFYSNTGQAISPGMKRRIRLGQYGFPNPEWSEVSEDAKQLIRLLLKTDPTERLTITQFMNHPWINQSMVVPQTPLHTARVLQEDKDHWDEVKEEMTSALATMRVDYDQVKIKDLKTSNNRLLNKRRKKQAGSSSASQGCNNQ
Chain of CDK5/p35 (Q00535 whole entry): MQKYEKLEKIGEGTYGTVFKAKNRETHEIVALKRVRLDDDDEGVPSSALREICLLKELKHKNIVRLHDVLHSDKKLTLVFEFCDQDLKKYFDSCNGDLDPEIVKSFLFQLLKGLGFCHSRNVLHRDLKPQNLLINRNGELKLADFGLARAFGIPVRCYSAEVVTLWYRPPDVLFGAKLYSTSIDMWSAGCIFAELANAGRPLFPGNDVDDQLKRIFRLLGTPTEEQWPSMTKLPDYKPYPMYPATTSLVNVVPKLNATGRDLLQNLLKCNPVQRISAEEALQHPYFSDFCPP
Chain of CDK5/p35 (Q15078 whole entry partner): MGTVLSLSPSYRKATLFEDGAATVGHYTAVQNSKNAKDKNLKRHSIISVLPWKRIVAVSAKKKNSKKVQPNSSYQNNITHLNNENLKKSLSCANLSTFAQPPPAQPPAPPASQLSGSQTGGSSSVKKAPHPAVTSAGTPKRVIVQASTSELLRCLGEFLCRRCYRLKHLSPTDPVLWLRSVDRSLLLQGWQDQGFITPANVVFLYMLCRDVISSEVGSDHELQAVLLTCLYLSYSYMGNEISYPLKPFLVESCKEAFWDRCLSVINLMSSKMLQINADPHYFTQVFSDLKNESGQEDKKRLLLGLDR

Question: How did the “% enzyme activity” value [1] turn out when `COc1cc(-c2cncc(-c3ccc(N4C[C@@H](C)N(C)[C@@H](C)C4)cc3)c2C)cc(F)c1C(N)=O` [Compound 26c, 2-Fluoro-6-methoxy-4-(4-methyl-5-(4-((3R,5S)-3,4,5-trimethylpiperazin-1-yl)phenyl)pyridin-3-yl)benzamide] was run?
Answer: 96.39%

Question: And the remaining activity at 1 µM [2]?
Answer: 97.6%

Question: What about the remaining activity at 1 µM [3] of the same molecule?
Answer: 100%

Question: What about the “% enzyme activity” value [4] of the same molecule?
Answer: 88.83%

Question: What about the remaining activity at 1 µM [5] of the same molecule?
Answer: 104%

Question: What about the “% enzyme activity” value [6] of the same molecule?
Answer: 100.36%

Question: What about the “% enzyme activity” value [7] of the same molecule?
Answer: 96.82%

Question: And the remaining activity at 1 µM [8]?
Answer: 91.6%

Question: `COc1cc(-c2cncc(-c3ccc(N4CCN(C)CC4)cc3)c2C)cc(F)c1C(N)=O` [Compound 26a, 2-Fluoro-6-methoxy-4-(4-methyl-5-(4-(4-methylpiperazin-1-yl)phenyl)pyridin-3-yl)benzamide] was tested. Which “% enzyme activity” value [1] did it give?
Answer: 99.20%

Question: And the remaining activity at 1 µM [2]?
Answer: 96.2%

Question: What about the remaining activity at 1 µM [3] of the same molecule?
Answer: 96.3%

Question: What about the “% enzyme activity” value [4] of the same molecule?
Answer: 84.98%

Question: And the remaining activity at 1 µM [5]?
Answer: 106%

Question: And the “% enzyme activity” value [6]?
Answer: 104.67%

Question: And the “% enzyme activity” value [7]?
Answer: 92.25%

Question: What about the remaining activity at 1 µM [8] of the same molecule?
Answer: 91.2%
